Test results reported in patent US8420052B2, “Imaging agents useful for identifying AD pathology” (Siemens Medical Solutions USA, Inc., priority 2008, dated 2013).

Test system: amyloid plaques and fibrils in human brain slices
Assay: Human brain slice competition assay using autoradiography
Type: binding
Conditions: radiolabeled tracer approx. 20 uCi, 90 min rt, lower = more displacement; for _max low dose (percent dose remaining relative to control with no blocker): blocker 0.25 uM; for _max high dose (percent dose remaining relative to control with no blocker): blocker 2.5 uM
Description: Human Brain Slice Competition Assay Using Autoradiography
Briefly, 5 micron thick human brain slices from regions of the brain bearing high amyloid plaque and fibril burden were incubated with approximately 20 uCi of a radiolabeled tracer in 2.5%:2.5%:95% DMSO:EtOH:PBS in the presence of blocker (2.5 and 0.25 uM total concentration) or absence of blocker (control). The slices were incubated at rt for 90 min. The slices were then quickly washed in PBS, followed by 70% EtOH:PBS for 2 min, then 30% EtOH:PBS for 2 min and then quickly washed with PBS. The slices were dried for 30 min and then exposed on autoradiographic film for 20 min. The brain slices were then removed from the slide and the radioactivity counted in a gamma counter. The percent dose remaining, relative to a control with no blocker, at 0.25 uM is represented in the “_max low dose” column. The percent dose remaining, relative to a control with no blocker, at 2.5 uM is represented in the “_max high dose” column.

SMILES	_max low dose (percent dose remaining relative to control with no blocker) [%]	_max high dose (percent dose remaining relative to control with no blocker) [%]
CNc1ccc(-c2nc3ccccc3s2)cc1 [BTA1, reference compound]	33.66	17.80
FCCOc1ccc2c(c1)[nH]c1ccccc12 [CB1]	74.86	30.34
FCCOCCOCCOc1ccc2c(c1)[nH]c1ccccc12 [CB3]	69.78	29.53
CNc1ccc2c(c1)[nH]c1cc(OCCOCCOCCF)ccc12 [CB4]	54.17	16.96
Cn1c2ccccc2c2ccc(OCCOCCOCCF)cc21 [CB6]	111.02	113.69
CN(C)c1ccc2c(c1)[nH]c1cc(OCCOCCOCCF)ccc12 [CB7]	42.64	15.14
CNc1ccc2[nH]c3ccc(OCCOCCOCCF)cc3c2c1 [CB8]	95.89	108.49
O=CNc1ccc2c(c1)[nH]c1cc(OCCOCCOCCF)ccc12 [CB9]	93.92	80.06
O=CNc1ccc2c(c1)[nH]c1cc(OCCOCCOCCF)ccc12 [CB10]	69.29	21.60
O=CNc1ccc2c(c1)[nH]c1cc(OCCF)ccc12 [CB12]	59.97	12.29
COc1ccc2[nH]c3ccc(NCCF)cc3c2c1 [CB13]	108.14	110.57
CN(CCCCF)c1ccc2c(c1)[nH]c1cc(O)ccc12 [CB14]	114.19	49.02
CC(=O)n1c2ccccc2c2ccc(OCCOCCOCCF)cc21 [CB17]	91.06	62.03
O=C(c1ccccc1)n1c2ccccc2c2ccc(OCCOCCOCCF)cc21 [CB21]	104.81	94.00
O=c1cc(-c2ccccc2)c2ccc(O)c(O)c2o1 [Compound 73]	68.43	34.37
COc1ccc2cc(-c3ccn[nH]3)ccc2c1 [Compound W1]	70.48	35.38
CN(C)c1ccc(/C=C2/C(=O)Nc3ccccc32)cc1 [Compound W12]	105.11	45.98
Oc1cccc2[nH]c3ccccc3c12 [Compound W19]	100.46	89.32
Nc1ccc2c(c1)oc1ccccc12 [Compound W20]	95.11	43.52
O=C(/C=C/C=C/c1ccccc1)c1cccs1 [Compound W24]	55.16	23.51
COc1cc2c(cc1N)oc1ccccc12 [Compound W33]	82.52	36.72
CC(=O)Nc1ccc2sc3ccccc3c2c1 [Compound W34]	84.84	73.74
